The text below walks through data of patent publication US20090247495A1, “CU[…] AND USES THEREOF” (priority 2007, published 2009).

SMILES strings stand for the structures. In brackets after ≈: the same amount, converted by molar mass.

The test system of one test is hsp27. In words: Western blot of hsp27 in HepG2, HT29 and MCF-7 cells. The test is classed as cell-based, human. The procedure: (§1) The human cancer cells line were serum starved for 18 hours prior to CuB/CuD treatment. Cells were incubated in a 6-well plate filled with 5 ml growth medium (RPMI with 0.2% FBS and 1% PS) at the cell density of 1×10^5 cells/ml, in the presence or absence of two different dosages of CuB/CuD for various time intervals. The drug treatment was terminated by centrifugation at 1,500 rpm for 5 minutes and the cells were rinsed twice with phosphate-buffered saline and lysed at 4° C. in a lysis buffer containing 50 mM Tris-HCl, pH7.5, 100 mM NaCl, 5 mM EDTA, 40 mM NaP2O7, 1% Triton X-100, 1 mM dithiothreitol, 200 μM Na3VO4, 100 uM phenylmethysufonyl fluoride, 2 μg/ml leupeptin, 4 μg/ml aprotinin and 0.7 μg/ml pepstatin. The insoluble protein lysate were removed by centrifugation for 10 minutes at 13,000 rpm. Fifteen micrograms of protein lysate was resolved using 10% SDS-polyacryamide gel electrophoresis (PAGE) and then subjected to western blot anaylsis. Western blots were performed with anti-Stat3, anti-Erk1/2 and anti-hsp27 antibodies specific for phosphor- and total Stat3, Erk and hsp27 proteins. The protein bands were then visualized with the Enhanced Chemiluminescence Plus (ECL Plus) detection system (Amersham). • 6.2.8.1 Inhibition Effect Cucurbitacin B/Cucurbitacin D on Stat3 Activation in HepG2 and HT29 Cells
(§2) Cells were incubated either with CuB or CuD (25 ug/ml or the dosage of IC50) for various time intervals (5, 10 or 30 mins, 1 or 4 hours). The Stat3 activation was detected by western blot.
A general note: In western blotting, separated proteins are transferred to a membrane and probed.

In the next test the test system is PARP. In words: Western blot of PARP cleavage in HL60 cells. The test is classed as cell-based, human. The procedure:
(§3) Control cells, as well as cells treated with cucurbitacin B or cucurbitacin D, were harvested and collected by centrifugation. Whole cell extracts were then prepared by lysing the cells using 4% sodium dodecyl sulfate (SDS) gel sample buffer. Cell extracts were boiled for 10 min and chilled on ice, subjected to 12% SDS-polyacrylamide gel electrophoresis, and transferred to a PVDF membrane. Each membrane was cut into to two pieces with one piece incubated at 4° C. overnight with antibodies against cell cycle signaling proteins, such as ERK, phosphorlated-ERK, p38, phosphorlated-p38, Cyclin E, Retinoblastoma, phosphalated-Retinoblastoma and c-myc, and apoptotic protein (PARP). β-actin was used as a control for protein loading. All antibodies were obtained from Cell signaling Technologies (USA). Then membranes were incubated at 37° C. for 1 h with secondary antibody conjugated with peroxidase, and the signal was detected using chemiluminescence detection reagent. The relative protein level was calculated as the ratio of the optical density of the protein of interest to that of β-actin.

The subject of test [1] is colon cancer cell line (HT29). Put plainly: MTT cell cytotoxicity assay, HT29. The test is classed as cell-based, human. As to conditions: 48 hours. The procedure: Three human cancer cell lines (HepG2(liver), HT29(colon) and MCF-7(breast)) were purchased from American Type Culture Collection (ATCC, Manassas, Va., USA). The cells were cultured in RPMI 1640 medium supplemented with 5% (v/v) fetal bovine serum (FBS) and 100 units/ml penicillin and streptomycin (Invitrogen Life Technologies) in a humidified 5% CO2 atmosphere at 37° C.
The cytotoxic effect of CuB and CuD on these three cancer cell lines were determined using MTT (3-[4,5-dimethylthiazol-2-yl]-2,5-diphenyl tetrazolium bromide) labeled cell cytotoxicity assay. A total of 1×10^4 cells were seeded into a 96-well plate for 24 hours prior to cucurbitacin B (CuB) or cucurbitacin D (CuD) treatment. They were then treated with different dosages of CuB/CuD for 48 hours. After the treatment, 20 μl of MTT (5 mg/ml) was added to each well and incubated for 4 hrs. Then the medium was discarded and 100 μl of dimethyl sulfoxide was added. The absorbance at 570 nm was then measured by using FLUOstar OPTIMA equipment (BMG, LABTECH GmbH, Germany). The percentage of inhibition against different dosages of CuB/CuD were plotted using the Prism software and the 50% inhibition concentration (IC50) were obtained.
In general terms: Tetrazolium assays rely on reduction of a dye to a coloured formazan, in cell work by metabolically active cells.

Test [2] has as its system Human cancer cell lines from the 59-NCI Cancer Cell Line Panel. Put plainly: Apoptosis (Annexin V-FITC / PI) by flow cytometry, 18 selected NCI panel cell lines. The test is classed as cell-based. The following applies: 48 hours; GI50, ½ GI50 and ¼ GI50. The procedure: Apoptosis is the important mechanism for cell death in normal cells. In cancer cells, this mechanism fails and cells proliferate without control. Human cancer cell lines from the 59-NCI Cancer Cell Line Panel including leukemia, melanoma and cancers of breast, brain, colon, lung, ovary, prostate and kidney were purchased from the National Institute of Cancer. […] They were treated with cucurbitacin B and cucurbitacin D at three different concentrations to elucidate their ability to induce any changes in cell cycle.
Cancer cell lines were maintained in RPMI 1640 supplemented with 5% Fetal Bovine Serum, 2 mM L-glutamine and 1% Penicillin/Streptomycin at 37° C. with 5% CO2. Cells were inoculated into tissue culture flask at cell concentrations from 50000 to 400,000 cells/ml according to the NCI guideline. The cells were incubated at 37° C. with 5% CO2 for 24 hours. Cucurbitacin B and cucurbitacin D were added to the cells of final concentrations ranging from 6 to 350 nM (GI50, ½ GI50 and ¼ GI50 of particular cell line) for 48 hours at 37° C. with 5% CO2. Cells (3×10^5) were then harvested and stained with 5 μl Annexin V-FITC and 10 μl propidium iodine (Becton Dickinson, CA, USA) for 15 minutes at room temperature. Ten thousands events were collected by the FACScaliber and the percentage of different cell populations were analyzed by the CellQuest™ software (Becton Dickinson).
(Flow cytometry measures light scatter and fluorescence of single cells or particles in a stream.)

A further test relates to Erk1/2. Put plainly: Western blot of Erk1/2 in HepG2, HT29 and MCF-7 cells. It is filed as cell-based, human. Here is the method:
as §1, §2

In a further test the test system is Stat3. Put plainly: Western blot of Stat3 activation in HepG2, HT29 and MCF-7 cells. The test is classed as cell-based, human.
In another test the test system is melanoma. In words: SRB growth inhibition, melanoma lines of the NCI panel. The test is classed as cell-based, human. As to conditions: 48 hours. The source says: Human cancer cell lines from the 59-NCI Cancer Cell Line Panel including leukemia, melanoma and cancers of breast, brain, colon, lung, ovary, prostate and kidney, were purchased from the National Institute of Cancer (USA). The growth inhibition (GI50) of these cell lines treated with cucurbitacin B and cucurbitacin D in various concentrations was investigated.
59 human cancer cell lines were maintained in RPMI 1640 (Invitrogen Life Technologies, CA, USA) supplemented with 5% Fetal Bovine Serum, 2 mM L-glutamine and 1% Penicillin/Streptomycin (Invitrogen Life Technologies) at 37° C. with 5% CO2. All chemicals were purchased from Sigma (St. Louis, Mo., USA) unless specified otherwise.
Sulforhodamine B (SRB) assay was applied to determine the cytostatic effect of cucurbitacin B and cucurbitacin D. SRB is a dye that binds to cellular proteins and will be dissolved in base. The biomass of total protein can be measured at 520 nm using a plate reader.
Cells were inoculated into 96-well microtiter plates including “Time zero” (Tz) plates in 100 μl at cell concentrations from 5000 to 40,000 cells per well according to NCI guideline. The cells were incubated at 37° C. with 5% CO2 for 24 hours. […] Bound SRB was solubilized with 100-200 ul per well of 10 mM trizma base and absorbance was measured at a wavelength of 520 nm. The percentage of growth inhibition was calculated as follows: […]

Test [3] concerns Human cancer cell lines from the 59-NCI Cancer Cell Line Panel. It is filed as cell-based.
In a further test the test system is MAPK signaling pathway. In words: Western blot of MAPK / cell cycle signaling proteins in HL60 cells. It is filed as cell-based, human. The procedure:
as §3

In test [4] the test system is Human liver cancer cell lines HepG2. Put plainly: MTT cytotoxicity assay, matrix combination of CuB and Sb on liver cancer cells. The test is classed as cell-based. As to conditions: HepG2, 2 days, CuB 0 μM. Here is the method:
Human liver cancer cell lines HepG2 was purchased from American Type Culture Collection (ATCC, Manassas, Va., USA). The cells were cultured in RPMI 1640 medium supplemented with 5% (v/v) fetal bovine serum (FBS) and 100 units/ml penicillin and streptomycin (Invitrogen Life Technologies) in a humidified 5% CO2 atmosphere at 37° C.
A total of 1×10^4 cells were seeded into a 96-well plate for 24 hours prior to drug treatment. They were then treated with different dosages (a multiple of 20-fold of IC50 values) of CuB or Sb for 48 hours. After the treatment, 20 μl of MTT (5 mg/ml) was added to each well and incubated for 4 hrs. Then the medium was discarded and 100 μl of dimethyl sulfoxide was added. The absorbance at 570 nm was then measured by using FLUOstar OPTIMA equipment (BMG, LABTECH GmbH, Germany). The percentage of inhibition against different dosages of CuB or Sb were plotted using the Prism software and the 50% inhibition concentration (IC50) were obtained.
The cells were then treated for 2 days and the % inhibition of growth is determined.
The excess over Bliss additivism may be calculated using the following formula and shown in Table 4: • Bliss Additivism: Combined response=CuB+Sb−(CuB)(Sb) where each effect is expressed as fractional inhibition between 0 and 1 • Excess over additivism=observed response−combined response

As usually defined, the IC50 is the midpoint of a concentration-inhibition curve. High values mean weaker potency, low ones greater potency. As a reminder, the GI50 is the concentration that inhibits growth by half. The low end stands for more potent growth inhibition, the high end for less potent growth inhibition. For `CC(C)(O)/C=C/C(=O)[C@](C)(O)[C@H]1[C@H](O)C[C@@]2(C)[C@@H]3CC=C4[C@@H](C[C@H](O)C(=O)C4(C)C)[C@]3(C)C(=O)C[C@]12C` [cucurbitacin D], the Hsp27 activation entry is “significant up-regulation” with hsp27 (HT29, 10 minutes); “significant up-regulation” in the test on hsp27 (HepG2, 30 minutes); “significant up-regulation” in the test with hsp27 (MCF-7, 4 hours). Besides, in the test with PARP, the “apoptosis marker PARP” value was “cleavage of PARP”. Besides, the 50% inhibitory concentration (IC50) in test [1] came to 0.27 µg/mL (≈ 0.523 µM). Also, the “cell lines in which apoptosis was induced” value in [2] is given as 11 out of 18. Moreover, the “expression of Erk1/2” value in the test with Erk1/2 (HT29, 5 minutes of treatment) is listed as “up-regulated the expression of Erk1/2 significantly”; with Erk1/2 (HepG2, 30 minutes of treatment) it was “up-regulated the expression of Erk1/2 significantly”. For the same compound, the Erk activation result with Erk1/2 (MCF-7 cells, 5 minutes) is “significant Erk activation”. Moreover, the Stat3 activation entry in the test with Stat3 (HepG2 cells and HT29 cells, 25 ug/ml, 30 minutes) is “inhibited significantly”; in the test with Stat3 (MCF-7 cells), “no significant change”. The compound further displayed a GI50 in the test on melanoma of 60 nM. Further, the “cell lines with G2/M arrest” value in [3] was 9 out of 18. Moreover, in test [3] (SF-295, 48 hours), the cell cycle effect result is “G2/M arrest and endoreduplication”. Besides, the “regulation of ERK, cyclin E, retinoblastoma phosphorylation and c-myc” value in the test on MAPK signaling pathway was “ERK activation, followed by cyclin E down-regulation, inhibition of retinoblastoma's phosphorylation, and ultimately down-regulation of c-myc”.

Usually % inhibition stands for the percentage by which the read-out fell short of the control. Turning to `CNC(=O)c1cc(Oc2ccc(NC(=O)Nc3ccc(Cl)c(C(F)(F)F)c3)cc2)ccn1` [sorafenib, reference compound], the “% inhibition” value was 4.61% in [4] (Sb 0.1 μM); 27.69% in test [4] (Sb 0.3 μM); 39.10% in test [4] (Sb 0.9 μM); 35.35% in test [4] (Sb 2.7 μM); 82.28% in test [4] (Sb 8.4 μM). For the same compound, the “Excess over Highest Single Agent Model” value in [4] (Sb 0.1 μM), in test [4] (Sb 0.3 μM), in test [4] (Sb 0.9 μM), in test [4] (Sb 2.7 μM) and in test [4] (Sb 8.4 μM) was 0 each time.
